Experimental findings from US6747135B1, “Fluorescent dye binding peptides” (The Board of Trustees for the Leland Stanford Junior …, priority 1998, dated 2004) are described below.

Test [1] is described as follows: Dye binding to peptide-coated cobalt Sepharose beads, fluorescence microscopy. The following applies: 0.5 μM Texas Red in TBS, 1 hr, RT. As to the method: FIG. 6. Texas Red-specific peptide PepTR401 (Panel A), PepTRS311 (Panel B), PepTR406 (Panel C) and nonspecific PepControl (Panel D) (see peptide sequences in Table 4) were bound via His6 tag to cobalt ion-containing Sepharose beads. The peptide coated beats were washed and incubated with 0.5 micromolar Texas Red in TBS for 1 hour at room temperature followed by several washings of beads in order to remove unbound dye. Fluorescent and nonflourescent control beads were photographed on fluorescent microscope Axiophot (Zeiss) using Rhodamine Red/Texas Red filter with the same time exposure for every sample. All binding experiments were accomplished in three parallels and results of a single experiments are shown.
Peptides were bound to cobalt ion-coated Sepharose beads and the resultant peptide-coated beads were incubated with corresponding fluorophore dyes, washed, and visualized for dye binding. The same amounts of Texas Red-specific peptides PepTR401, PepTRS311, PepTR406 as well as nonspecific peptide PepControl (see Table 4) were bound via His6 tag to the TALON Metal Affinity Resin (Clontech) in TBS buffer essentially as described by manufacturer's protocol. Beads (5 μl) were washed twice with 0.5 ml TBS to remove unbound peptide and incubated with 0.5 μM Texas Red in 40 μl of TBS buffer for 1 hr at RT. Finally, the beads were washed three times with 0.3 ml TBS to remove unbound dye. Fluorescent and nonfluorescent control beads were photographed with 10-fold magnification on fluorescent microscope Axiophot (Zeiss) using Rhodamine Red/Texas Red filter with 5″ exposure.

Test in test [2]: as above
The following applies: Oregon Green 514.

Test in test [3]: as above
The settings on record: Fluorescein.

A short description of test [4]: Peptide-Texas Red binding in solution, excitation and emission spectra. The settings on record: 10 μM peptide, 50 nM Texas Red, TBS, 1 hr RT. As to the method:
FIGS. 5A and 5B. Peptide—Texas Red binding. Excitation and emission spectra. Peptides at the noted concentrations were incubated with Texas Red (50 nM), or without, in 0.6 ml of TBS for 1 hr at room temperature (RT). Samples were scanned on a spectrofluorimeter (SPEX Fluoromax (Jobin Yvon-SPEX Instruments Co.)). Excitation and excitation/emission peak shifts for PepTR401(10 μM)/Texas Red and PepTRS311 (10 μM)/Texas Red complexes, respectively (A), were reproducible in three independent experiments. The results of a single experiment are presented.
(§1) The above test only checks for bound dye that remains fluorescent at the wavelengths tested. Binding of fluorophore dyes to specific peptides might result in changes in the fluorescence spectra of bound dye versus the spectra of free dye. Or, one might observe an increase or quenching of fluorescence. We mixed concentrated peptide with 50 nM of the corresponding dye in solution and determined the excitation and emission spectra of the resulting mixture.
We attempted with these findings to obtain an affinity measurement for the higher affinity TRS311 peptide. Peptides in different concentrations (1.3-20 μM) were incubated with Texas Red (50 nM) in 0.6 ml of TBS buffer for 1 hr at RT. Excitation and emission spectra of samples were obtained by using spectrofluorimeter SPEX Fluoromax (Jobin Yvon-SPEX Instruments Co.) and DataMax software package. Peak positions were automatically calculated by software. List mode data was saved for other analyses.

Test [5] is described as follows: Peptide-Fluorescein binding in solution, excitation and emission spectra. The following applies: peptide with 50 nM Fluorescein. As to the method: as §1

Take “KHVOYWTOMFYSGGGSAETVGGGHHHHHH (KHVQYWTQMFYSGGGSAETVGGGHHHHHH; fluorette) [PepTR401]”: the “dye binding to peptide-coated beads” value is “significant binding” in test [1], “bound to neither Oregon Green 514 nor Fluorescein” in test [2] and “bound to neither Oregon Green 514 nor Fluorescein” in test [3]. For the same sequence, the peak emission shift entry in test [4] is on record as “no emission shift change”. For the same sequence, the peak excitation shift result in test [4] is reported as “+1.9 nm”. Also, the “shift in Fluorescein excitation or emission spectra” value in test [5] is given as “no shift”.
